Experiments:
EonuCSP 6-1 = EonuCSP 6-1 (Empoasca onukii, UniProt A0A343WH12); assay: Competitive fluorescence binding assay (1-NPN probe) with recombinant EonuCSP6-1
Method: (§1) N-phenyl-1-naphthylamine (1-NPN) was used as the fluorescent probe. The excitation wavelength in the fluorescence spectrometer was set to 337 nm, which was the results of an optimization that we achieved in lab. The scanning wavelength was 420–600 nm.
(§2) The tested chemicals were dissolved in methanol in preparation for 1 mM stock solution. […] We determined the binding constants of 1-NPN by Scatchard formula. […] The binding affinities of the competitors were evaluated from the corresponding IC50 according to the equation: K i = IC50/(1 + [1-NPN]/K1-NPN).

E. onukii adults = assay: Y-tube olfactometer assay (behavioral response); assay type: in vivo, Empoasca onukii; settings: 20 μL of 10 μg/μL in methanol, 90 adults per volatile
Method: We use a Y-tube olfactometer (1.5 cm in diameter, arms with 8 cm length, and a stem with 18 cm length) to detect the behavioral response of E. onukii to volatiles. The incoming air to the tube was firstly filtered using active carbon and then humidified with the ultrapure water. The air through the arms was blown at a constant flow ([…]). A total of 20 μL tested volatile oil (10 μg/μL in methanol (HPLC)) pipetted onto 1 cm diameter filter paper. This filter paper was placed in the chamber, which connected to one arm of the Y-tube olfactometer. As control, the same filter paper treated with 20 μL of methanol was placed in the chamber connected to another arm of the Y-tube. This experiment was performed in the dark room, which employed a light-emitting diode as the light source. Each adult was introduced into the middle of the stem of the Y-tube and the individuals that made a choice within 8 min were recorded. Individuals moving toward the odorant source for half of the arm distance and stayed for 1 minute were recorded as odorant choice. For each volatile component, 90 adult were used. After 10 insects were tested, the Y-tube olfactometer was washed with 75% ethanol and air-dried, and tested volatiles were placed in another arm for the subsequent tests.

EonuCSP4 = EonuCSP4 (Empoasca onukii, UniProt A0A343WGZ9); assay: Competitive fluorescence binding assay (1-NPN probe) with recombinant EonuCSP4
Method: as §1, §2

EonuCSP6-2 = EonuCSP6-2 (Empoasca onukii, UniProt A0A343WH13); assay: Competitive fluorescence binding assay (1-NPN probe) with recombinant EonuCSP6-2
Method: as §1, §2

Sequence of EonuCSP 6-1 (A0A343WH12 entry or part of it): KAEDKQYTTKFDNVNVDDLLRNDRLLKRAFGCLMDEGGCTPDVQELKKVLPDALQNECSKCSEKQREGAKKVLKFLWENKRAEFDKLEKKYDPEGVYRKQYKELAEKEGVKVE
Sequence of EonuCSP6-2 (A0A343WH13 entry or part of it): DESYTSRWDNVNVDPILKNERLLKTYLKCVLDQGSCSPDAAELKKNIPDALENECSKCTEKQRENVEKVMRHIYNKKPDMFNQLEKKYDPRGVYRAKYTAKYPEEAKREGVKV
Sequence of EonuCSP4 (A0A343WGZ9 entry or part of it): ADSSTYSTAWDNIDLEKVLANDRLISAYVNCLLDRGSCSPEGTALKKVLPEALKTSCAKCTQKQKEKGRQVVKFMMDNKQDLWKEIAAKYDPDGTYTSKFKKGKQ

Row | SMILES | IC50 (EonuCSP 6-1) [µM] | behavioral response of E. onukii adults (choice versus methanol control) (E. onukii adults) | Kd (EonuCSP4) [µM] | Kd (EonuCSP 6-1) [µM] | Kd (EonuCSP6-2) [µM]
1 | O=Cc1ccccc1 [Benzaldehyde] | > 20 | significant preference | – | – | –
2 | c1ccc(Nc2cccc3ccccc23)cc1 [1-NPN, N-phenyl-1-naphthylamine] | – | – | 11 | 12.5 | 10.2
3 | CC/C=C\CCOC(=O)CCCC [Cis-3-Hexenyl n-valerate] | – | significant preference | – | – | –

From paper PMC9845707, “Involvement of three chemosensory proteins in perception of host plant volatiles in the tea green leafhopper, Empoasca onukii” (Frontiers in Physiology, 2023)
